Results from patent publication EP3046573B1, “AMYLIN ANALOGUES” (Zealand Pharma A/S, priority 2013, dated 2015).
Like-named read-outs stand apart in the source and are kept apart here. Numbered stars: 1 amine (or outer) side, 2 acyl side, 3 side chain; on linkers, the order of the positions; unused ones are H or OH. Bridge positions count the residues as written; N and C are the ends. Square brackets hold non-standard residues; d marks the D form. Peptide text beside a SMILES is read from it. * marks the point of attachment. C20 diacid = O=C(O)CCCCCCCCCCCCCCCCCCC(=O)*; γGlu = O=C(O)[C@H](CCC(=O)[*:2])N[*:1]; NMeI = CC[C@H](C)[C@H](NC)C(=O)O; Orn = NCCC[C@H](N)C(=O)O; Dab = NCC[C@H](N)C(=O)O; Sar = CNCC(=O)O

How the values were obtained:
[1] = target: T1, human calcitonin receptor (hCTR2) (Homo sapiens, UniProt P30988); assay: hCTR2 assay: induction of cAMP (AlphaScreen cAMP Assay kit) in COS7 cells expressing hCTR2; type: cell-based
T1 construct: expressed in transfected cells
T1 sequence (P30988 25-474): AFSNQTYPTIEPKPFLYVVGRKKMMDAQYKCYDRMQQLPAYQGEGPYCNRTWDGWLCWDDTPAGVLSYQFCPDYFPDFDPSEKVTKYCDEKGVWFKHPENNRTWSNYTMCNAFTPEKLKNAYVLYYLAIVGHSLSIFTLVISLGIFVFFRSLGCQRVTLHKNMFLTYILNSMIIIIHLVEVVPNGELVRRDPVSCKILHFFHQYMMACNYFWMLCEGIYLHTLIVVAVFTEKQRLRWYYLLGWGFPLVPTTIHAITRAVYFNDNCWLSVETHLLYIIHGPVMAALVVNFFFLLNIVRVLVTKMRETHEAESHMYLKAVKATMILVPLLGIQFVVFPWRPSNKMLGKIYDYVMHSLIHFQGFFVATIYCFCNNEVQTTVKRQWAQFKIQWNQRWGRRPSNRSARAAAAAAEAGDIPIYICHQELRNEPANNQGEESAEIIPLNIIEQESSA
Summary of the method: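 Functional agonism is measured as cAMP accumulation in a COS7 line stably transfected with hCTR2, lacking endogenous RAMPs. Peptides act for 15 min at 37° C with IBMX present, and curves are fitted with a 4-parameter logistic model.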

[2] = Solubility assessment (turbidity absorbance at 325 nm); type: physicochemical; conditions: stock 2 mg/ml diluted 1:1, ambient temperature (typically 25°C), n=1; for Solubility, Acetate buffer pH 4: 100 mM acetate buffer pH 4.0; for Solubility, Acetate buffer pH 5: 100 mM acetate buffer pH 5.0; for Solubility, Histidine buffer pH 6: 100 mM histidine buffer pH 6.0; for Solubility, Histidine buffer pH 7: 100 mM histidine buffer pH 7.0; for Solubility, Phosphate buffer pH 6: 100 mM phosphate buffer pH 6.0; for Solubility, Phosphate buffer pH 7: 100 mM phosphate buffer pH 7.0; for Solubility, Phosphate buffer pH 7.5: 100 mM phosphate buffer pH7.5
Summary of the method: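 Stock 2 mg/ml peptide, H2O/HCl pH 2.5; 1:1 into 100 mM buffers: acetate pH 4.0/5.0, His pH 6.0/7.0, phosphate pH 6.0/7.0/7.5. A280 + A325, ~25°C, n=1. Soluble ≥ 1 mg/ml if A325 ≤ 0.02.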

[3] = cAMP induction in COS7 cells expressing hCTR2, average of a minimum of 3 determinations, read-out: hCTR2 EC50

Row | SMILES | EC50 [1, 3] [nM] | Solubility, Acetate buffer pH 4 [2] | Solubility, Acetate buffer pH 5 [2] | Solubility, Histidine buffer pH 6 [2] | Solubility, Histidine buffer pH 7 [2] | Solubility, Phosphate buffer pH 6 [2] | Solubility, Phosphate buffer pH 7 [2] | Solubility, Phosphate buffer pH 7.5 [2] | EC50 [1] [nM]
1 | CC[C@H](C)[C@@H](C(=O)N[C@@H](CC(C)C)C(=O)N[C@@H](CO)C(=O)N[C@@H](CO)C(=O)N[C@H](C(=O)N[C@@H](CC(N)=O)C(=O)N[C@H](C(=O)NCC(=O)N[C@@H](CO)C(=O)N[C@@H](CC(N)=O)C(=O)N[C@H](C(=O)N1CCC[C@H]1C(N)=O)[C@@H](C)O)C(C)C)[C@@H](C)O)N(C)C(=O)CN(C)C(=O)[C@H](Cc1ccccc1)NC(=O)[C@H](CC(N)=O)NC(=O)[C@H](CC(N)=O)NC(=O)[C@H](CO)NC(=O)[C@H](CO)NC(=O)[C@H](Cc1c[nH]cn1)NC(=O)[C@H](Cc1c[nH]cn1)NC(=O)[C@H](CC(C)C)NC(=O)[C@H](Cc1ccccc1)NC(=O)[C@H](CCC(=O)O)NC(=O)[C@H](C)NC(=O)[C@H](CC(C)C)NC(=O)[C@H](CCCNC(=N)N)NC(=O)[C@H](CCC(N)=O)NC(=O)[C@@H](NC(=O)[C@H](C)NC(=O)[C@@H]1CSSC[C@H](NC(=O)[C@H](CCCCN)NC(=O)CC[C@H](NC(=O)CCCCCCCCCCCCCCCCCCC(=O)O)C(=O)O)C(=O)N[C@@H](CC(N)=O)C(=O)N[C@@H]([C@@H](C)O)C(=O)N[C@@H](C)C(=O)N[C@@H]([C@@H](C)O)C(=O)N1)[C@@H](C)O [Compound 20, [19CD]-isoGlu-KC()NTATC()ATQRLAEFLHHSSNNF-Gly(Me)-Ile(Me)-LSSTNVGSNTP-NH2] ({C20 diacid-γGlu}-KCNTATCATQRLAEFLHHSSNNF[Sar][NMeI]LSSTNVGSNTP-NH2; disulfide 2-7) | 0.094 | SS (SS indicates solubility ≥ 1mg/ml) | SS (SS indicates solubility ≥ 1mg/ml) | SS (SS indicates solubility ≥ 1mg/ml) | SS (SS indicates solubility ≥ 1mg/ml) | SS (SS indicates solubility ≥ 1mg/ml) | SS (SS indicates solubility ≥ 1mg/ml) | SS (SS indicates solubility ≥ 1mg/ml) | 
2 | CC[C@H](C)[C@@H](C(=O)N[C@@H](CC(C)C)C(=O)N[C@@H](CO)C(=O)N[C@@H](CO)C(=O)N[C@H](C(=O)N[C@@H](CC(N)=O)C(=O)N[C@H](C(=O)NCC(=O)N[C@@H](CO)C(=O)N[C@@H](CC(N)=O)C(=O)N[C@H](C(=O)N1CCC[C@H]1C(N)=O)[C@@H](C)O)C(C)C)[C@@H](C)O)N(C)C(=O)[C@H](C)NC(=O)CN(C)C(=O)[C@H](Cc1ccccc1)NC(=O)[C@H](CC(N)=O)NC(=O)[C@H](CC(N)=O)NC(=O)[C@H](CO)NC(=O)[C@H](CO)NC(=O)[C@H](CCCNC(=N)N)NC(=O)[C@H](Cc1c[nH]cn1)NC(=O)[C@H](CC(C)C)NC(=O)[C@H](Cc1ccccc1)NC(=O)[C@H](CCC(=O)O)NC(=O)[C@H](C)NC(=O)[C@H](CC(C)C)NC(=O)[C@H](CCCNC(=N)N)NC(=O)[C@H](CCC(N)=O)NC(=O)[C@@H](NC(=O)[C@H](C)NC(=O)[C@@H]1CSSC[C@H](NC(=O)[C@H](CCCNC(=N)N)NC(=O)[C@H](Cc2c[nH]cn2)NC(=O)CC[C@H](NC(=O)CCCCCCCCCCCCCCCCCCC(=O)O)C(=O)O)C(=O)N[C@@H](CC(N)=O)C(=O)N[C@@H]([C@@H](C)O)C(=O)N[C@@H](C)C(=O)N[C@@H]([C@@H](C)O)C(=O)N1)[C@@H](C)O [Compound 85, [19CD]-isoGlu-HRC()NTATC()ATQRLAEFLHRSSNNF-Gly(Me)-A-Ile(Me)-LSSTNVGSNTP-NH2] ({C20 diacid-γGlu}-HRCNTATCATQRLAEFLHRSSNNF[Sar]A[NMeI]LSSTNVGSNTP-NH2; disulfide 3-8) |  | SS (SS indicates solubility ≥ 1mg/ml) | SS (SS indicates solubility ≥ 1mg/ml) | SS (SS indicates solubility ≥ 1mg/ml) | SS (SS indicates solubility ≥ 1mg/ml) | SS (SS indicates solubility ≥ 1mg/ml) | SS (SS indicates solubility ≥ 1mg/ml) | SS (SS indicates solubility ≥ 1mg/ml) | 0.083
3 | CC[C@H](C)[C@@H](C(=O)N[C@@H](CC(C)C)C(=O)N[C@@H](CO)C(=O)N[C@@H](CO)C(=O)N[C@H](C(=O)N[C@@H](CC(N)=O)C(=O)N[C@H](C(=O)NCC(=O)N[C@@H](CO)C(=O)N[C@@H](CC(N)=O)C(=O)N[C@H](C(=O)N1CCC[C@H]1C(N)=O)[C@@H](C)O)C(C)C)[C@@H](C)O)N(C)C(=O)CN(C)C(=O)[C@H](Cc1ccccc1)NC(=O)[C@H](CC(N)=O)NC(=O)[C@H](CC(N)=O)NC(=O)[C@H](CO)NC(=O)[C@H](CO)NC(=O)[C@H](Cc1c[nH]cn1)NC(=O)[C@H](Cc1c[nH]cn1)NC(=O)[C@H](CC(C)C)NC(=O)[C@H](Cc1ccccc1)NC(=O)[C@H](CCC(=O)O)NC(=O)[C@H](C)NC(=O)[C@H](CC(C)C)NC(=O)[C@H](CCCNC(=N)N)NC(=O)[C@H](CCC(N)=O)NC(=O)[C@@H](NC(=O)[C@H](C)NC(=O)[C@@H]1CSSC[C@H](NC(=O)[C@H](CCCN)NC(=O)CC[C@H](NC(=O)CCCCCCCCCCCCCCCCCCC(=O)O)C(=O)O)C(=O)N[C@@H](CC(N)=O)C(=O)N[C@@H]([C@@H](C)O)C(=O)N[C@@H](C)C(=O)N[C@@H]([C@@H](C)O)C(=O)N1)[C@@H](C)O [Compound 66, [19CD]-isoGlu-Orn-C()NTATC()ATQRLAEFLHHSSNNF-Gly(Me)-Ile(Me)-LSSTNVGSNTP-NH2] ({C20 diacid-γGlu}-[Orn]CNTATCATQRLAEFLHHSSNNF[Sar][NMeI]LSSTNVGSNTP-NH2; disulfide 2-7) | 0.11 | SS (SS indicates solubility ≥ 1mg/ml) | SS (SS indicates solubility ≥ 1mg/ml) | SS (SS indicates solubility ≥ 1mg/ml) | SS (SS indicates solubility ≥ 1mg/ml) | SS (SS indicates solubility ≥ 1mg/ml) | SS (SS indicates solubility ≥ 1mg/ml) | SS (SS indicates solubility ≥ 1mg/ml) | 
4 | CC[C@H](C)[C@@H](C(=O)N[C@@H](CC(C)C)C(=O)N[C@@H](CO)C(=O)N[C@@H](CO)C(=O)N[C@H](C(=O)N[C@@H](CC(N)=O)C(=O)N[C@H](C(=O)NCC(=O)N[C@@H](CO)C(=O)N[C@@H](CC(N)=O)C(=O)N[C@H](C(=O)N1CCC[C@H]1C(N)=O)[C@@H](C)O)C(C)C)[C@@H](C)O)N(C)C(=O)CN(C)C(=O)[C@H](Cc1ccccc1)NC(=O)[C@H](CC(N)=O)NC(=O)[C@H](CC(N)=O)NC(=O)[C@H](CO)NC(=O)[C@H](CO)NC(=O)[C@H](Cc1c[nH]cn1)NC(=O)[C@H](Cc1c[nH]cn1)NC(=O)[C@H](CC(C)C)NC(=O)[C@H](Cc1ccccc1)NC(=O)[C@H](CCC(=O)O)NC(=O)[C@H](C)NC(=O)[C@H](CC(C)C)NC(=O)[C@H](CCCNC(=N)N)NC(=O)[C@H](CCC(N)=O)NC(=O)[C@@H](NC(=O)[C@H](C)NC(=O)[C@@H]1CSSC[C@H](NC(=O)[C@H](CCN)NC(=O)CC[C@H](NC(=O)CCCCCCCCCCCCCCCCCCC(=O)O)C(=O)O)C(=O)N[C@@H](CC(N)=O)C(=O)N[C@@H]([C@@H](C)O)C(=O)N[C@@H](C)C(=O)N[C@@H]([C@@H](C)O)C(=O)N1)[C@@H](C)O [Compound 64, [19CD]-isoGlu-Dab-C()NTATC()ATQRLAEFLHHSSNNF-Gly(Me)-Ile(Me)-LSSTNVGSNTP-NH2] ({C20 diacid-γGlu}-[Dab]CNTATCATQRLAEFLHHSSNNF[Sar][NMeI]LSSTNVGSNTP-NH2; disulfide 2-7) | 0.4 | SS (SS indicates solubility ≥ 1mg/ml) | II (II indicates solubility ≤ 1 mg/ml) | SS (SS indicates solubility ≥ 1mg/ml) | SS (SS indicates solubility ≥ 1mg/ml) | SS (SS indicates solubility ≥ 1mg/ml) | SS (SS indicates solubility ≥ 1mg/ml) | SS (SS indicates solubility ≥ 1mg/ml) | 
